Experimental findings from ChEMBL document CHEMBL1150351, “Design, synthesis, and biological evaluation of new-generation taxoids” (J Med Chem, 2008) are described below.

Assay [1] is described as follows: Cytotoxicity against multidrug resistant Pgp expressing human NCI/ADR cells after 72 hrs by sulforhodamine B test. The assay is classed as functional, cell-based. The conditions noted are these: NCI/ADR-RES.
The nature of assay [2]: Cytotoxicity against Pgp deficient human LCC6 cells after 72 hrs by sulforhodamine B test. The assay is classed as functional, cell-based. The conditions noted are these: C6, 72 h. On the technique in general: The SRB assay estimates cell density from bound dye.
Assay [3] relates to MCF7. Nature of the assay: Cytotoxicity against Pgp deficient human MCF7 cells after 72 hrs by sulforhodamine B test. The assay is classed as functional, cell-based. The conditions noted are these: MCF7, 72 h.
In assay [4] the test system is MCF7. Nature of the assay: Resistance index, Ratio of IC50 for multidrug resistant Pgp expressing human NCI/ADR cells to IC50 for Pgp deficient human MCF7 cells. More on the design: reference not given here. The assay is classed as functional.
The subject of another assay is C6. Nature of the assay: Resistance index, Ratio of IC50 for multidrug resistant Pgp expressing human LCC6 cells to IC50 for Pgp deficient human LCC6 cells. The assay is classed as functional. More on the design: reference not given here.
A short description of assay [5]: Cytotoxicity against multidrug resistant Pgp expressing human LCC6 cells after 72 hrs by sulforhodamine B test. The assay is classed as functional, cell-based. The settings on record: LCC-6, 72 h.

Broadly, the IC50 is the midpoint of a concentration-inhibition curve. For the molecule `CCC(=O)O[C@H]1C(=O)[C@@]2(C)[C@H]([C@H](OC(=O)c3cccc(N=[N+]=[N-])c3)[C@]3(O)C[C@H](OC(=O)[C@H](O)[C@H](CC(C)C)NC(=O)OC(C)(C)C)C(C)=C1C3(C)C)[C@]1(OC(C)=O)CO[C@@H]1C[C@@H]2O`, the figures for the IC50 (in assay [1]; in assay [2]; with MCF7 [3]) were 2.1 nM, 1.1 nM and 1 nM, respectively.
For `CC(=O)O[C@H]1C(=O)[C@@]2(C)[C@H]([C@H](OC(=O)c3cccc(C)c3)[C@]3(O)C[C@H](OC(=O)[C@H](O)[C@H](C=C(C)C)NC(=O)OC(C)(C)C)C(C)=C1C3(C)C)[C@]1(OC(C)=O)CO[C@@H]1C[C@@H]2O`, the IC50 in assay [1] came to 5 nM; in assay [2] it was 1.5 nM; in the assay on MCF7 [3], 0.8 nM.
With `CCC(=O)O[C@H]1C(=O)[C@@]2(C)[C@H]([C@H](OC(=O)c3ccccc3)[C@]3(O)C[C@H](OC(=O)[C@H](O)[C@H](CC(C)C)NC(=O)OC(C)(C)C)C(C)=C1C3(C)C)[C@]1(OC(C)=O)CO[C@@H]1C[C@@H]2O`, in assay [1], it took 5.1 nM to reach half-maximal inhibition (IC50). Also, the “Ratio IC50” value in the assay with MCF7 [4] stood at 15.
With `CCC(=O)O[C@H]1C(=O)[C@@]2(C)[C@H]([C@H](OC(=O)c3cccc(OC)c3)[C@]3(O)C[C@H](OC(=O)[C@H](O)[C@H](CC(C)C)NC(=O)C4CC4)C(C)=C1C3(C)C)[C@]1(OC(C)=O)CO[C@@H]1C[C@@H]2O`, the half-inhibitory concentration (IC50) is 11.8 nM in assay [1], 0.6 nM in assay [2], 0.4 nM in the assay with MCF7 [3] and 13 nM in assay [5]. Besides, the “Ratio IC50” value in the assay with MCF7 [4] is 30; in the assay with C6, 22.
`CCC(=O)O[C@H]1C(=O)[C@@]2(C)[C@H]([C@H](OC(=O)c3ccccc3)[C@]3(O)C[C@H](OC(=O)[C@H](O)[C@H](CC(C)C)NC(=O)C4CCCC4)C(C)=C1C3(C)C)[C@]1(OC(C)=O)CO[C@@H]1C[C@@H]2O`: the 50% inhibitory concentration (IC50) in assay [1] was determined as 29 nM; in assay [2] it was 6.3 nM; in the assay on MCF7 [3] it was 2.3 nM; in assay [5], 64 nM. Moreover, the “Ratio IC50” value with MCF7 [4] is 12; in the assay with C6, 10.
Consider `CCC(=O)O[C@H]1C(=O)[C@@]2(C)[C@H]([C@H](OC(=O)c3cccc(N=[N+]=[N-])c3)[C@]3(O)C[C@H](OC(=O)[C@H](O)[C@H](C=C(C)C)NC(=O)OC(C)(C)C)C(C)=C1C3(C)C)[C@]1(OC(C)=O)CO[C@@H]1C[C@@H]2O`, for which the IC50 in assay [1] came out at 1.1 nM; in assay [2], 0.9 nM; in the assay with MCF7 [3], 0.9 nM.
For the molecule `COc1cccc(C(=O)O[C@H]2[C@@H]3[C@]4(OC(C)=O)CO[C@@H]4C[C@H](O)[C@@]3(C)C(=O)[C@H](OC(=O)c3ccccc3OC)C3=C(C)[C@@H](OC(=O)[C@H](O)[C@H](C=C(C)C)NC(=O)OC(C)(C)C)C[C@]2(O)C3(C)C)c1`, the IC50 in assay [1] was 3.3 nM; in assay [2] it was 0.4 nM; with MCF7 [3] it was 1.1 nM; in assay [5] it was 0.9 nM. In addition, the results for the “Ratio IC50” value in the assay on MCF7 [4] and with C6 were 3 and 2.3, respectively.
Take `CCC(=O)O[C@H]1C(=O)[C@@]2(C)[C@H]([C@H](OC(=O)c3cccc(OC)c3)[C@]3(O)C[C@H](OC(=O)[C@H](O)[C@@H](NC(=O)OC(C)(C)C)[C@H]4CC4(C)C)C(C)=C1C3(C)C)[C@]1(OC(C)=O)CO[C@@H]1C[C@@H]2O`: the half-maximal inhibitory concentration (IC50) in assay [1] stood at 1.5 nM; in assay [2], 0.48 nM; in the assay on MCF7 [3], 0.6 nM.
As to `CCC(=O)O[C@H]1C(=O)[C@@]2(C)[C@H]([C@H](OC(=O)c3cccc(OC)c3)[C@]3(O)C[C@H](OC(=O)[C@H](O)[C@H](CC(C)C)NC(=O)C4CCCCC4)C(C)=C1C3(C)C)[C@]1(OC(C)=O)CO[C@@H]1C[C@@H]2O`, the IC50 in assay [1] came out at 6.5 nM; in assay [2], 1 nM; with MCF7 [3], 0.7 nM; in assay [5], 12 nM. Further, the figures for the “Ratio IC50” value with MCF7 [4] and with C6 were 9.3 and 12, respectively.
Consider `COc1ccc(CC(=O)O[C@H]2C(=O)[C@@]3(C)[C@H]([C@H](OC(=O)c4cccc(OC)c4)[C@]4(O)C[C@H](OC(=O)[C@H](O)[C@H](C=C(C)C)NC(=O)OC(C)(C)C)C(C)=C2C4(C)C)[C@]2(OC(C)=O)CO[C@@H]2C[C@@H]3O)cc1`, for which the IC50 in assay [1] stood at 1.8 nM; in assay [2], 0.4 nM; in the assay on MCF7 [3], 0.6 nM; in assay [5] it was 0.4 nM. Moreover, the results for the “Ratio IC50” value with MCF7 [4] and in the assay with C6 were 3 and 1, respectively.
In the case of `CCC(=O)O[C@H]1C(=O)[C@@]2(C)[C@H]([C@H](OC(=O)c3cccc(OC)c3)[C@]3(O)C[C@H](OC(=O)[C@H](O)[C@H](C=C(C)C)NC(=O)C4CCC4)C(C)=C1C3(C)C)[C@]1(OC(C)=O)CO[C@@H]1C[C@@H]2O`, the IC50 in assay [1] came out at 8.8 nM; in assay [2], 1.6 nM; in the assay with MCF7 [3], 0.8 nM; in assay [5] it was 15 nM. In addition, the “Ratio IC50” value in the assay on MCF7 [4] stood at 11; with C6 it was 9.4.
On to `CCC(=O)O[C@H]1C(=O)[C@@]2(C)[C@H]([C@H](OC(=O)c3ccccc3)[C@]3(O)C[C@H](OC(=O)[C@H](O)[C@H](C=C(C)C)NC(=O)OC4CCCCC4)C(C)=C1C3(C)C)[C@]1(OC(C)=O)CO[C@@H]1C[C@@H]2O`, for which the IC50 in assay [1] was 8.9 nM; in assay [2] it was 1.2 nM; in the assay with MCF7 [3], 1.4 nM; in assay [5], 15 nM. Besides, the “Ratio IC50” value in the assay with MCF7 [4] was found to be 6.4; in the assay with C6 it was 13.
Take `CCC(=O)O[C@H]1C(=O)[C@@]2(C)[C@H]([C@H](OC(=O)c3ccccc3)[C@]3(O)C[C@H](OC(=O)[C@H](O)[C@H](CC(C)C)NC(=O)OC4CCCCC4)C(C)=C1C3(C)C)[C@]1(OC(C)=O)CO[C@@H]1C[C@@H]2O`: the half-inhibitory concentration (IC50) in assay [1] came out at 14 nM; in assay [2], 4.8 nM; in the assay on MCF7 [3] it was 1.4 nM; in assay [5] it was 18 nM. Besides, the “Ratio IC50” value in the assay with MCF7 [4] came to 10; in the assay on C6, 3.8.
For the molecule `CCC(=O)O[C@H]1C(=O)[C@@]2(C)[C@H]([C@H](OC(=O)c3ccccc3)[C@]3(O)C[C@H](OC(=O)[C@H](O)[C@H](CC(C)C)NC(=O)OC4CCCC4)C(C)=C1C3(C)C)[C@]1(OC(C)=O)CO[C@@H]1C[C@@H]2O`, the 50% inhibitory concentration (IC50) in assay [1] is 8.8 nM; in assay [2] it was 2.6 nM; in the assay on MCF7 [3] it was 1.3 nM; in assay [5], 14 nM. The results for the “Ratio IC50” value with MCF7 [4] and in the assay with C6 were 6.8 and 5.4, respectively.
On to `CCC(=O)O[C@H]1C(=O)[C@@]2(C)[C@H]([C@H](OC(=O)c3cccc(OC)c3)[C@]3(O)C[C@H](OC(=O)[C@H](O)[C@H](C=C(C)C)NC(=O)OC4CCCCC4)C(C)=C1C3(C)C)[C@]1(OC(C)=O)CO[C@@H]1C[C@@H]2O`, for which the IC50 in assay [1] was found to be 14 nM; in assay [2], 1.23 nM; with MCF7 [3] it was 1.44 nM; in assay [5] it was 14.8 nM. Also, the figures for the “Ratio IC50” value in the assay on MCF7 [4] and with C6 were 9.7 and 12, respectively.
In the case of `CCC(=O)O[C@H]1C(=O)[C@@]2(C)[C@H]([C@H](OC(=O)c3ccccc3)[C@]3(O)C[C@H](OC(=O)[C@H](O)[C@H](C=C(C)C)NC(=O)OC(C)(C)C)C(C)=C1C3(C)C)[C@]1(OC(C)=O)CO[C@@H]1C[C@@H]2O`, the 50% inhibitory concentration (IC50) in assay [1] was 4 nM. The “Ratio IC50” value in the assay with MCF7 [4] was 22.
As for `CCC(=O)O[C@H]1C(=O)[C@@]2(C)[C@H]([C@H](OC(=O)c3cccc(OC)c3)[C@]3(O)C[C@H](OC(=O)[C@H](O)[C@H](C=C(C)C)NC(=O)C4CC4)C(C)=C1C3(C)C)[C@]1(OC(C)=O)CO[C@@H]1C[C@@H]2O`, the IC50 came to 7.8 nM in assay [1], 1.1 nM in assay [2], 0.5 nM with MCF7 [3] and 17.2 nM in assay [5]. Also, the “Ratio IC50” value with MCF7 [4] was found to be 15.6; in the assay with C6, 16.
On to `CCC(=O)O[C@H]1C(=O)[C@@]2(C)[C@H]([C@H](OC(=O)c3ccccc3)[C@]3(O)C[C@H](OC(=O)[C@H](O)[C@H](C=C(C)C)NC(=O)C4CCCCC4)C(C)=C1C3(C)C)[C@]1(OC(C)=O)CO[C@@H]1C[C@@H]2O`, for which the IC50 in assay [1] was determined as 18 nM; in assay [2], 1.3 nM; in the assay on MCF7 [3], 1 nM; in assay [5] it was 13 nM. Also, the “Ratio IC50” value worked out at 18 in the assay on MCF7 [4] and 10 in the assay on C6.
`C=CCC[C@H](NC(=O)OC(C)(C)C)[C@@H](O)C(=O)O[C@H]1C[C@@]2(O)[C@@H](OC(=O)c3cccc(OC)c3)[C@@H]3[C@]4(OC(C)=O)CO[C@@H]4C[C@H](O)[C@@]3(C)C(=O)[C@H](OC(=O)CC)C(=C1C)C2(C)C`: the IC50 was determined as 7.7 nM in assay [1], 0.9 nM in assay [2] and 2 nM in the assay on MCF7 [3].
On to `COc1cccc(C(=O)O[C@H]2[C@@H]3[C@]4(OC(C)=O)CO[C@@H]4C[C@H](O)[C@@]3(C)C(=O)[C@H](OC(=O)OCc3ccccc3)C3=C(C)[C@@H](OC(=O)[C@H](O)[C@H](C=C(C)C)NC(=O)OC(C)(C)C)C[C@]2(O)C3(C)C)c1`, for which the IC50 was 1.5 nM in assay [1], 1.2 nM in assay [2], 0.2 nM with MCF7 [3] and 1.8 nM in assay [5]. The entries for the “Ratio IC50” value with MCF7 [4] and in the assay on C6 were 7.5 and 1.5, respectively.
On to `COc1cccc(C(=O)O[C@H]2[C@@H]3[C@]4(OC(C)=O)CO[C@@H]4C[C@H](O)[C@@]3(C)C(=O)[C@H](OC(C)=O)C3=C(C)[C@@H](OC(=O)[C@H](O)[C@H](C=C(C)C)NC(=O)OC(C)(C)C)C[C@]2(O)C3(C)C)c1`, for which the concentration for half-maximal inhibition (IC50) turned out to be 2.3 nM in assay [1], 0.6 nM in assay [2] and 0.8 nM with MCF7 [3].
In the case of `C=CC[C@H](NC(=O)OC(C)(C)C)[C@@H](O)C(=O)O[C@H]1C[C@@]2(O)[C@@H](OC(=O)c3cccc(OC)c3)[C@@H]3[C@]4(OC(C)=O)CO[C@@H]4C[C@H](O)[C@@]3(C)C(=O)[C@H](OC(=O)CC)C(=C1C)C2(C)C`, the results for the IC50 (in assay [1]; in assay [2]; in the assay on MCF7 [3]) were 8.7 nM, 1.2 nM and 0.8 nM, respectively.
